# Square brackets hold non-standard residues; d marks the D form. Peptide text beside a SMILES is read from it. Bip = N[C@@H](Cc1ccc(-c2ccccc2)cc1)C(=O)O; 2Nal = N[C@@H](Cc1ccc2ccccc2c1)C(=O)O; Dab = NCC[C@H](N)C(=O)O; AEEA = NCCOCCOCC(=O)O
# What was measured:
# [1] = test system: red blood cells; details: at 150 µM peptide; 0.5% v/v RBC in PBS, 1 h 37 °C, absorbance 414 nm, normalized to melittin (100%) and PBS (0%)
# Method: A total of 150 µL of 5 µM melittin was added to the positive control wells 1-6H of a V-shaped 96-well polypropylene plate and left overnight. The melittin solution was removed and the positive control wells were washed 3 times with 150 µL PBS. Afterwards, a 2.5 µM melittin solution was added to the positive control wells. For the assay, 0-negative blood in EDTA was used. Blood was washed by mixing 3 mL of PBS with 1 mL of whole blood, and centrifuged for 8 min at 3000 rpm. The supernatant was discarded and 4 mL of PBS added, mixed gently, and centrifuged. This wash cycle was repeated but the last centrifuge velocity was raised to 4000 rpm. Next, 40 µL red blood cells (RBC) was suspended in 8 mL of PBS to achieve an RBC suspension of 0.5% volume/volume (v/v). Peptide solutions were prepared at 600 µM, two times the highest concentration. A total of 150 µL peptide solution was transferred to row A. Next, 75 µL PBS was transferred to wells B1 to G12, as well as H7-12 (negative control), and the peptides were serially diluted two-fold. Then, 75 µL RBC suspension was added to all wells and the plate was covered with a Microseal® film and incubated for 1 h at 37 °C. Next, the plate was centrifuged for 10 min at 4000 rpm. Subsequently, 60 µL supernatant was transferred into the corresponding wells of a clear, polystyrene, flat-bottomed 96-well ELISA plate. The absorbance was read at λ = 414 nm with a VersaMaxTM Tunable Microplate Reader and the data were evaluated on Softmax® Pro. The results were normalized with respect to the average positive (100%) and negative (0%) controls, as described previously [43].
# [2] = test system: S. aureus ATCC 29213; format: cell-based
# Method: (§1) Bacterial strains (E. coli ATCC 29522, S. aureus ATCC 29213, A. baumannii ATCC 19606, and P. aeruginosa ATCC 27853) were grown overnight on LB agar plates at 37 °C. Overnight cultures were prepared by inoculation of two to three colonies in 10 mL non-cation adjusted Mueller–Hinton broth (MHB) media (BD BBLTM Beef extract powder, BD BactoTMCasamino acids, and DIFCO soluble starch). Bacterial inoculum for MIC testing was prepared as balanced cultures, as previously described. The bacterial suspension was adjusted using MHB to an OD600 of 0.1, approximately 1·10^8 colony forming units (CFU/mL), and then diluted 1:200 in MHB, to give a final bacterial suspension of 5·10^5 CFU/mL, as described by Wiegand et al.. […] For MIC determination, all peptides were measured in triplicates using the protocol described by Wiegand et al. for “antimicrobial peptides that require the presence of acetic acid/BSA”. In brief, 20 µL peptide solution and gentamycin solution was transferred to column 1 of 96-well plates. Next, 10 µL 0.2% BSA; 0.01% acetic acid MHB media was transferred to column 2–11. Subsequently, peptides were serially diluted two-fold in the MIC plate and 90 µL bacterial suspension was transferred to all wells in column 1–11. Next, 100 µL bacterial suspension was transferred to column 12 D–F (growth control) and 100 µL media to column 12 A–C (sterility control). After an overnight incubation at 37 °C of the MIC plates, MIC values were determined as the lowest concentration at which there was no visible bacterial growth. For the inoculum control, 10 µL of solution from a positive-growth control well from each bacterial strain was dissolved in 990 µL phosphate-buffered saline (PBS) (1:100 dilution) in an Eppendorf tube. This solution was vortexed and 100 µL transferred to another Eppendorf tube containing 900 µL PBS (1:10 dilution) and vortexed. Then, 100 µL of each dilution was spread onto the MHB media plates, in triplicates, to achieve a CFU dilution of 1:1000 and 1:10,000, respectively. The plates were incubated overnight at 37 °C. The colonies were counted and 50 colonies were expected on the 1:10,000 plates and 500 on the 1:1000 plates.
# [3] = test system: P. aeruginosa ATCC 27853; format: cell-based
# Method: as §1
# [4] = test system: A. baumannii ATCC 19606; format: cell-based; details: ATCC 19606
# Method: as §1
# [5] = test system: E. coli ATCC 29522; format: cell-based; details: ATCC 29522
# Method: as §1
smiles,measurement,setting,value
"NCCCC[C@@H]1NC(=O)[C@H](Cc2ccc3ccccc3c2)NC(=O)COCCOCCNC(=O)[C@H](Cc2ccc(-c3ccccc3)cc2)NC(=O)[C@H](CCCCN)NC(=O)[C@H](CCCCN)NC(=O)[C@H](Cc2ccc3ccccc3c2)NC(=O)[C@H](CCCCN)NC(=O)[C@H](CC(N)=O)NC1=O [BSI-9, cyclo(Lys-Nal-Lys-Lys-Bip-O2Oc-Nal-Lys-Asn), reference compound] (cyclo(K[2Nal]KK[Bip][AEEA][2Nal]KN))",percent hemolytic activity against red blood cells (%H),[1],33%
same,Minimum inhibitory concentration SA,[2],32 µg/mL
same,Minimum inhibitory concentration PA,[3],16 µg/mL
same,Minimum inhibitory concentration AB,[4],32 µg/mL
same,Minimum inhibitory concentration EC,[5],64 µg/mL
NCCCC[C@@H]1NC(=O)[C@H](CCCCN)NC(=O)[C@H](Cc2ccc3ccccc3c2)NC(=O)[C@H](CCCCN)NC(=O)[C@H](CCCCN)NC(=O)[C@H](CC(N)=O)NC(=O)[C@H](Cc2ccc3ccccc3c2)NC(=O)COCCOCCNC(=O)[C@H](Cc2ccc(-c3ccccc3)cc2)NC1=O [compound 1] (cyclo(K[2Nal]KK[Bip][AEEA][2Nal]NK)),Minimum inhibitory concentration SA,[2],>64 µg/mL
same,Minimum inhibitory concentration PA,[3],32 µg/mL
same,Minimum inhibitory concentration AB,[4],32 µg/mL
same,Minimum inhibitory concentration EC,[5],>64 µg/mL
NCCCC[C@@H]1NC(=O)[C@H](Cc2ccc3ccccc3c2)NC(=O)COCCOCCNC(=O)[C@H](Cc2ccc(-c3ccccc3)cc2)NC(=O)[C@H](CC(N)=O)NC(=O)[C@H](CCCCN)NC(=O)[C@H](Cc2ccc3ccccc3c2)NC(=O)[C@H](CCCCN)NC(=O)[C@H](CCCCN)NC1=O [compound 2] (cyclo(K[2Nal]KN[Bip][AEEA][2Nal]KK)),Minimum inhibitory concentration SA,[2],>64 µg/mL
same,Minimum inhibitory concentration PA,[3],64 µg/mL
same,Minimum inhibitory concentration AB,[4],>64 µg/mL
same,Minimum inhibitory concentration EC,[5],>64 µg/mL
NCCCC[C@@H]1NC(=O)[C@H](Cc2ccc3ccccc3c2)NC(=O)COCCOCCNC(=O)[C@H](Cc2ccc(-c3ccccc3)cc2)NC(=O)[C@H](CCCCN)NC(=O)[C@H](CC(N)=O)NC(=O)[C@H](Cc2ccc3ccccc3c2)NC(=O)[C@H](CCCCN)NC(=O)[C@H](CCCCN)NC1=O [compound 3] (cyclo(K[2Nal]NK[Bip][AEEA][2Nal]KK)),Minimum inhibitory concentration SA,[2],64 µg/mL
same,Minimum inhibitory concentration PA,[3],64 µg/mL
same,Minimum inhibitory concentration AB,[4],64 µg/mL
same,Minimum inhibitory concentration EC,[5],>64 µg/mL
NCCCC[C@@H]1NC(=O)[C@H](Cc2ccc3ccccc3c2)NC(=O)COCCOCCNC(=O)[C@H](Cc2ccc(-c3ccccc3)cc2)NC(=O)[C@H](CCCCN)NC(=O)[C@H](CCCCN)NC(=O)[C@H](Cc2ccc3ccccc3c2)NC(=O)[C@H](CC(N)=O)NC(=O)[C@H](CCCCN)NC1=O [compound 4] (cyclo(N[2Nal]KK[Bip][AEEA][2Nal]KK)),Minimum inhibitory concentration SA,[2],>64 µg/mL
same,Minimum inhibitory concentration PA,[3],64 µg/mL
same,Minimum inhibitory concentration AB,[4],64 µg/mL
same,Minimum inhibitory concentration EC,[5],>64 µg/mL
NCCCC[C@@H]1NC(=O)[C@H](Cc2ccc3ccccc3c2)NC(=O)COCCOCCNC(=O)[C@H](Cc2ccc(-c3ccccc3)cc2)NC(=O)[C@H](CCCCN)NC(=O)[C@H](CCCCN)NC(=O)[C@H](Cc2ccccc2)NC(=O)[C@H](CCCCN)NC(=O)[C@H](CC(N)=O)NC1=O [compound 5] (cyclo(KFKK[Bip][AEEA][2Nal]KN)),percent hemolytic activity against red blood cells (%H),[1],4%
same,Minimum inhibitory concentration SA,[2],>64 µg/mL
same,Minimum inhibitory concentration PA,[3],32 µg/mL
same,Minimum inhibitory concentration AB,[4],>64 µg/mL
same,Minimum inhibitory concentration EC,[5],>64 µg/mL
NCCCC[C@@H]1NC(=O)[C@H](Cc2ccc3ccccc3c2)NC(=O)COCCOCCNC(=O)[C@H](Cc2ccccc2)NC(=O)[C@H](CCCCN)NC(=O)[C@H](CCCCN)NC(=O)[C@H](Cc2ccc3ccccc3c2)NC(=O)[C@H](CCCCN)NC(=O)[C@H](CC(N)=O)NC1=O [compound 6] (cyclo(K[2Nal]KKF[AEEA][2Nal]KN)),percent hemolytic activity against red blood cells (%H),[1],6%
same,Minimum inhibitory concentration SA,[2],>64 µg/mL
same,Minimum inhibitory concentration PA,[3],32 µg/mL
same,Minimum inhibitory concentration AB,[4],>64 µg/mL
same,Minimum inhibitory concentration EC,[5],>64 µg/mL
NCCCC[C@@H]1NC(=O)[C@H](Cc2ccccc2)NC(=O)COCCOCCNC(=O)[C@H](Cc2ccc(-c3ccccc3)cc2)NC(=O)[C@H](CCCCN)NC(=O)[C@H](CCCCN)NC(=O)[C@H](Cc2ccc3ccccc3c2)NC(=O)[C@H](CCCCN)NC(=O)[C@H](CC(N)=O)NC1=O [compound 7] (cyclo(K[2Nal]KK[Bip][AEEA]FKN)),percent hemolytic activity against red blood cells (%H),[1],7%
same,Minimum inhibitory concentration SA,[2],>64 µg/mL
same,Minimum inhibitory concentration PA,[3],64 µg/mL
same,Minimum inhibitory concentration AB,[4],64 µg/mL
same,Minimum inhibitory concentration EC,[5],>64 µg/mL
NCCCC[C@@H]1NC(=O)[C@H](Cc2ccccc2)NC(=O)COCCOCCNC(=O)[C@H](Cc2ccccc2)NC(=O)[C@H](CCCCN)NC(=O)[C@H](CCCCN)NC(=O)[C@H](Cc2ccccc2)NC(=O)[C@H](CCCCN)NC(=O)[C@H](CC(N)=O)NC1=O [compound 8] (cyclo(KFKKF[AEEA]FKN)),percent hemolytic activity against red blood cells (%H),[1],3%
same,Minimum inhibitory concentration SA,[2],>64 µg/mL
same,Minimum inhibitory concentration PA,[3],>64 µg/mL
same,Minimum inhibitory concentration AB,[4],>64 µg/mL
same,Minimum inhibitory concentration EC,[5],>64 µg/mL
N=C(N)NCCC[C@@H]1NC(=O)[C@H](CC(N)=O)NC(=O)[C@H](CCN)NC(=O)[C@H](Cc2ccc3ccccc3c2)NC(=O)COCCOCCNC(=O)[C@H](Cc2ccc(-c3ccccc3)cc2)NC(=O)[C@H](CCN)NC(=O)[C@H](CCN)NC(=O)[C@H](Cc2ccc3ccccc3c2)NC1=O [compound 10] (cyclo(R[2Nal][Dab][Dab][Bip][AEEA][2Nal][Dab]N)),percent hemolytic activity against red blood cells (%H),[1],66%
same,Minimum inhibitory concentration SA,[2],2 µg/mL
same,Minimum inhibitory concentration PA,[3],2 µg/mL
same,Minimum inhibitory concentration AB,[4],32 µg/mL
same,Minimum inhibitory concentration EC,[5],32 µg/mL
N=C(N)NCCC[C@@H]1NC(=O)[C@H](CCN)NC(=O)[C@H](Cc2ccc3ccccc3c2)NC(=O)[C@H](CCN)NC(=O)[C@H](CC(N)=O)NC(=O)[C@H](CCN)NC(=O)[C@H](Cc2ccc3ccccc3c2)NC(=O)COCCOCCNC(=O)[C@H](Cc2ccc(-c3ccccc3)cc2)NC1=O [compound 12] (cyclo([Dab][2Nal][Dab]R[Bip][AEEA][2Nal][Dab]N)),percent hemolytic activity against red blood cells (%H),[1],98%
same,Minimum inhibitory concentration SA,[2],1 µg/mL
same,Minimum inhibitory concentration PA,[3],4 µg/mL
same,Minimum inhibitory concentration AB,[4],32 µg/mL
same,Minimum inhibitory concentration EC,[5],32 µg/mL
N=C(N)NCCC[C@@H]1NC(=O)[C@H](Cc2ccc3ccccc3c2)NC(=O)COCCOCCNC(=O)[C@H](Cc2ccc(-c3ccccc3)cc2)NC(=O)[C@H](CCCNC(=N)N)NC(=O)[C@H](CCCNC(=N)N)NC(=O)[C@H](Cc2ccc3ccccc3c2)NC(=O)[C@H](CCCNC(=N)N)NC(=O)[C@H](CC(N)=O)NC1=O [compound 14] (cyclo(R[2Nal]RR[Bip][AEEA][2Nal]RN)),percent hemolytic activity against red blood cells (%H),[1],68%
same,Minimum inhibitory concentration SA,[2],32 µg/mL
same,Minimum inhibitory concentration PA,[3],32 µg/mL
same,Minimum inhibitory concentration AB,[4],>64 µg/mL
same,Minimum inhibitory concentration EC,[5],>64 µg/mL
N=C(N)NCCC[C@@H]1NC(=O)[C@H](Cc2ccc3ccccc3c2)NC(=O)[C@H](CCCNC(=N)N)NC(=O)[C@H](CC(N)=O)NC(=O)[C@H](CCN)NC(=O)[C@H](Cc2ccc3ccccc3c2)NC(=O)COCCOCCNC(=O)[C@H](Cc2ccc(-c3ccccc3)cc2)NC(=O)[C@H](CCN)NC1=O [compound 15] (cyclo(R[2Nal]R[Dab][Bip][AEEA][2Nal][Dab]N)),Minimum inhibitory concentration SA,[2],8 µg/mL
same,Minimum inhibitory concentration PA,[3],16 µg/mL
same,Minimum inhibitory concentration AB,[4],>64 µg/mL
same,Minimum inhibitory concentration EC,[5],64 µg/mL
N=C(N)NCCC[C@@H]1NC(=O)[C@H](Cc2ccc3ccccc3c2)NC(=O)[C@H](CCCNC(=N)N)NC(=O)[C@H](CC(N)=O)NC(=O)[C@H](CCN)NC(=O)[C@H](Cc2ccc3ccccc3c2)NC(=O)COCCOCCNC(=O)[C@H](Cc2ccccc2)NC(=O)[C@H](CCN)NC1=O [compound 16] (cyclo(R[2Nal]R[Dab]F[AEEA][2Nal][Dab]N)),percent hemolytic activity against red blood cells (%H),[1],16%
same,Minimum inhibitory concentration PA,[3],16 µg/mL
same,Minimum inhibitory concentration AB,[4],64 µg/mL
same,Minimum inhibitory concentration EC,[5],64 µg/mL

# From paper PMC7399811, “Analogues of a Cyclic Antimicrobial Peptide with a Flexible Linker Show Promising Activity against Pseudomonas aeruginosa and Staphylococcus aureus” (Antibiotics, 2020)
